{
  "source": "patent US20260027179A1",
  "about": "“ANTI-SYNUCLEINOPATHY PEPTIDE AND METHODS TO TREAT NEURODEGENERATIVE DISEASES” (University of British Columbia, priority 2021, published 2026)",
  "key": {"HSP90": {"tested_on": "HSP90", "assay": "HSP90 level in cortical cultures, immunoblot", "format": "cell-based, rat", "details": "50 μM, 24 hrs", "description": "(§1) Primary rat neuron cultures were prepared from embryos of pregnant Sprague-Dawley rats (E18). The experimental protocol was approved by the University of British Columbia Animal Care Committee. Briefly, the cortical tissue or ventral midbrain tissue was isolated into ice cold HBSS (Invitrogen, 14170-112) and then digested with 0.25% trypsin-EDTA at 37° C. for 30 min. After washing with warm DMEM (supplemented with 10% FBS) three times, neurons were suspended in neuron culture media and dissociated by trituration using varying sizes of pipettes. Neurons were then centrifuged, and the pellet was re-suspended in culture media, washed twice with culture media, and plated on the poly-D-lysine-coated plates. Neuron culture was maintained in the 37° C. incubator with 95% O2 and 5% CO2. The morning after culturing, 2/3 of the neuron culture media was replaced with fresh neuron culture media. Media was then replaced every 3-4 days. […]\n(§2) Brain tissues or cultured cells were lysed on ice in the lysis buffer and then the solution was centrifuged at 14,000 rpm for 10 min at 4° C. Next, the supernatant was collected and protein concentrations were determined using a BCA protein assay kit (Thermo Scientific, 23227). […] The band density of each protein was quantified by the Bio-Rad Quantity One software and the relative optical density was analyzed relative to the loading control β-actin on the same membrane."}, "14-3-3": {"tested_on": "14-3-3", "assay": "14-3-3 level in cortical cultures, immunoblot", "format": "cell-based, rat", "details": "50 μM, 24 hrs", "description": "as §1, §2"}, "C57BL/6 mice": {"tested_on": "C57BL/6 mice", "assay": "MPTP mouse model, rotarod test", "format": "in vivo", "details": "peptide 6 μmol/kg i.p. twice a day for 12 days, vs MPTP group", "description": "C57BL/6 mice (20-25 g) received intraperitoneal (i.p.) injection of 30 mg/kg parkinsonian toxin MPTP hydrochloride once a day for 5 days to induce dopaminergic neuron death in the substantia nigra, while the control mice received equal volumes of saline injection. 6 μmol/kg Tat-βsyn-degron peptide or control Tat-βsyn peptide was i.p. injected into the MPTP-treated mice every 12 hrs from the first day of MPTP injection until 7 days after the last injection of MPTP. All groups of mice then underwent a rotarod test before they were sacrificed.\nThe rotarod test was performed as previously described (Heldermon, C. D. et al., PloS one 2, e772, doi:10.1371/journal.pone.0000772 (2007)), with modifications. Briefly, 6 days after the last MPTP injection, all mice received 4 rounds of training on the rotarod (Stoelting Co.). In the first two rounds of training, the rotarod was maintained at constant speed of 20 rpm for 3 min. In the second two rounds of training, the rotarod reversed rotation direction every 3 turns at the constant speed of 20 rpm for 3 min. […] Mice were tested 10 times at 20 min intervals, and the time that they remained on the rotarod during each test was recorded. […] The motor performance of the mouse was expressed as the latency to fall off the rotarod."}},
  "data": [
    {"sequence": "YGRKKRRQRRRRTKSGVYLVGRRRG (The sequence is synthesized (YGRKKRRQRRRRTKSGVYLVGRRRG)) [Tat-βsyn-degron]", "values": [
      {"measurement": "expression level of HSP90", "setting": "HSP90", "result": "did not affect the expression levels"},
      {"measurement": "expression level of 14-3-3", "setting": "14-3-3", "result": "did not affect the expression levels"},
      {"measurement": "MPTP-induced motor deficits (latency to fall off the rotarod)", "setting": "C57BL/6 mice", "result": "significantly reduced"}
    ]}
  ]
}
